Laboratory results taken from patent publication US20240158446A1, “CYCLIC COMPOUND HAVING SELECTIVE INHIBITORY ACTION ON KRAS OVER HRAS AND NRAS” (CHUGAI SEIYAKU KABUSHIKI KAISHA, priority 2021, published 2024).
pKd: −log10 of the molar value. Read-outs that look alike come from different tables or passages of the source. Where a SMILES comes first, the peptide text is derived from it. Bridges are numbered along the chain shown (N, C = ends). [ ]: non-standard residue; d: D form. The star is where a group is joined. hPhe(3-Cl-4-CF3) = N[C@@H](CCc1ccc(C(F)(F)F)c(Cl)c1)C(=O)O; NPrPhe(4-CF3) = CCCN[C@@H](Cc1ccc(C(F)(F)F)cc1)C(=O)O; NMeGly(cPent) = CN[C@H](C(=O)O)C1CCCC1; NMeD = CN[C@@H](CC(=O)O)C(=O)O; NMeL = CN[C@@H](CC(C)C)C(=O)O; Pip = O=C(O)[C@@H]1CCCCN1; Morpholide = C1CN(*)CCO1; NMeA = CN[C@@H](C)C(=O)O; Ac5c = NC1(C(=O)O)CCCC1; Aze = O=C(O)[C@@H]1CCN1; Abu = CC[C@H](N)C(=O)O; Sar = CNCC(=O)O

Columns and labels:
[1] = biological target: GDP-bound KRAS wild-type protein (Homo sapiens, UniProt P01116); assay: Binding to KRAS by surface plasmon resonance (SPR), Single Cycle Kinetics; details: GDP-bound KRAS wild-type protein, read-out: KRAS KD
GDP-bound KRAS wild-type protein, sequence (P01116 whole entry): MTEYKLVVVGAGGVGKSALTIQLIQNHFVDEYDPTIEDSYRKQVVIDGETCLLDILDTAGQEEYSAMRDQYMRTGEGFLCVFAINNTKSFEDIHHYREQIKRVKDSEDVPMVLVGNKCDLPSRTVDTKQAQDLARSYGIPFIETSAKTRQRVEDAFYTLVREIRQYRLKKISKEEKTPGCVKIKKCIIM

[2] = biological target: GDP-bound NRAS wild-type protein (Homo sapiens, UniProt P01111); assay: Binding to NRAS by surface plasmon resonance (SPR), Single Cycle Kinetics; details: for NRAS/KRAS (ratio of KD value with respect to NRAS to KD value with respect to KRAS) / NRAS/KRAS (ratio of KD value for NRAS to KD value for KRAS): SPR, GDP-bound NRAS wild-type protein vs GDP-bound KRAS wild-type protein
GDP-bound NRAS wild-type protein, sequence (P01111 whole entry): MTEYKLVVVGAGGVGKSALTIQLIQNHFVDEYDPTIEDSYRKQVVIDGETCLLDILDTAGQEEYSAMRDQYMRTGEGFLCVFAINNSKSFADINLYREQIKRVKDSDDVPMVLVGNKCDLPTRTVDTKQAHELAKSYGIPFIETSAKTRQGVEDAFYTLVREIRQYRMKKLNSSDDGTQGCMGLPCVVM

[3] = biological target: GDP-bound HRAS wild-type protein (Homo sapiens, UniProt P01112); assay: Binding to HRAS by surface plasmon resonance (SPR), Single Cycle Kinetics; details: for HRAS/KRAS (ratio of KD value with respect to HRAS to KD value with respect to KRAS) / HRAS/KRAS (ratio of KD value for HRAS to KD value for KRAS): SPR, GDP-bound HRAS wild-type protein vs GDP-bound KRAS wild-type protein
GDP-bound HRAS wild-type protein, sequence (P01112 whole entry): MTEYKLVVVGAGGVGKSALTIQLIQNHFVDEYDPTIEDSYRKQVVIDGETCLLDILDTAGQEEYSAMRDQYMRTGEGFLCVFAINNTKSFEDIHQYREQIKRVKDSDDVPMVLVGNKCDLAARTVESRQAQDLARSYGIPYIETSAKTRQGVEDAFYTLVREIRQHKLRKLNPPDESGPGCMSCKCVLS

[4] = SPR Single Cycle Kinetics, 1:1 binding model

pKd [1, 4] | pKd ([1]; SPR, Single Cycle Kinetics) | SMILES | NRAS/KRAS (ratio of KD value with respect to NRAS to KD value with respect to KRAS) [2] | HRAS/KRAS (ratio of KD value with respect to HRAS to KD value with respect to KRAS) [3] | NRAS/KRAS (ratio of KD value for NRAS to KD value for KRAS) [2] | HRAS/KRAS (ratio of KD value for HRAS to KD value for KRAS) [3] | NRAS/KRAS (ratio of KD value with respect to GDP-bound NRAS wild-type protein to KD value with respect to KRAS) ([2]; SPR KD ratio NRAS/KRAS, class symbols) | HRAS/KRAS (ratio of KD value with respect to GDP-bound HRAS wild-type protein to KD value with respect to KRAS) ([3]; SPR KD ratio HRAS/KRAS, class symbols)
7.31 |  | CC[C@H](C)[C@@H]1NC(=O)[C@H](CC(C)C)N(C)C(=O)C[C@@H](C(=O)N2CCOCC2)N(C)C(=O)[C@H](C2CCCC2)N(C)C(=O)C2(CCCC2)NC(=O)[C@@H]2CCCN2C(=O)[C@H](CCc2ccc(C(F)(F)F)c(Cl)c2)NC(=O)CN(C)C(=O)[C@H](Cc2ccc(OC(F)(F)F)cc2)N2C/C=C\CC[C@@H](C2=O)N(C)C(=O)CN(C)C1=O [PP0610] | B (a compound having 3 or more and less than 10 is denoted as B) | B (a compound having 3 or more and less than 10 is denoted as B) |  |  |  | 
 | 9.32 | CCO[C@@H]1C[C@H]2C(=O)NC3(CCC3)C(=O)N(C)[C@@H](C3CCCC3)C(=O)N(C)[C@H](C(=O)N(C)C)CC(=O)N(C)[C@@H](CC)C(=O)N[C@@H]([C@@H](C)CC)C(=O)N(C)CC(=O)N(C)[C@H]3CCCCCN(C3=O)[C@@H](Cc3ccc(F)c(Cl)c3)C(=O)N(C)CC(=O)N[C@@H](CCc3cc(F)c(C(F)(F)F)c(F)c3)C(=O)N2C1 [PP0909] |  |  | B (a compound having 3 or more and less than 10 is denoted as B) | B (a compound having 3 or more and less than 10 is denoted as B) |  | 
8.30 |  | CCO[C@@H]1C[C@H]2C(=O)NC3(CCC(F)(F)CC3)C(=O)N(C)[C@@H](C3CCCC3)C(=O)N(C)[C@H](C(=O)N(C)C)CC(=O)N(C)[C@@H](C)C(=O)N[C@@H]([C@@H](C)CC)C(=O)N(C)CC(=O)N(C)[C@H]3CCCCCN(C3=O)[C@@H](Cc3ccc(C(F)(F)F)cc3)C(=O)N(C)CC(=O)N[C@@H](CCc3cc(F)c(C(F)(F)F)c(F)c3)C(=O)N2C1 [PP0725] | B (a compound having 3 or more and less than 10 is denoted as B) | B (a compound having 3 or more and less than 10 is denoted as B) |  |  |  | 
9.33 |  | CCCN1C(=O)CN(C)C(=O)CN(C)C(=O)[C@H]([C@@H](C)CC)NC(=O)[C@H](CC(C)C)N(C)C(=O)C[C@@H](C(=O)N2CCOCC2)N(C)C(=O)[C@H](C2CCCC2)N(C)C(=O)C2(CCCC2)NC(=O)[C@@H]2CCCCN2C(=O)[C@H](CCc2ccc(C(F)(F)F)c(Cl)c2)NC(=O)CN(C)C(=O)[C@@H]1Cc1ccc(C(F)(F)F)cc1 [PP0263] ([NMeL]I[Sar][Sar][NPrPhe(4-CF3)][Sar][hPhe(3-Cl-4-CF3)][Pip][Ac5c][NMeGly(cPent)][NMeD]-Morpholide; lactam N-11) |  |  | B (a compound having 3 or more and less than 10 is denoted as B) | C (A compound having a KD ratio of 0.1 or more and less than 3 is denoted as C) |  | 
9.64 |  | CC[C@H](C)[C@@H]1NC(=O)[C@H](COC)N(C)C(=O)C[C@@H](C(=O)N(C)C)N(C)C(=O)[C@H](C2CCCC2)N(C)C(=O)C2(CC(C)(C)C2)NC(=O)[C@@H]2CCCCN2C(=O)[C@H](CCc2cc(F)c(C(F)(F)F)c(F)c2)NC(=O)CN(C)C(=O)[C@H](Cc2ccc(C(F)(F)F)cc2)N2CC/C=C\C[C@@H](C2=O)N(C)C(=O)CN(C)C1=O [PP2907] |  |  |  |  | AA (a compound having 20 or more is denoted as AA) | A (a compound having 10 or more and less than 20 is denoted as A)
 | 8.72 | CCC[C@H]1C(=O)N[C@@H]([C@@H](C)CC)C(=O)N(C)CC(=O)N(C)[C@H]2C/C=C\CCN(C2=O)[C@@H](Cc2ccc(C(F)(F)F)cc2)C(=O)N(C)CC(=O)N[C@@H](CCc2ccc(Cl)c(Cl)c2)C(=O)N2CCCCC[C@H]2C(=O)NC2(CC(C)(C)C2)C(=O)N(C)[C@@H](C(CC)CC)C(=O)N(C)[C@H](C(=O)N(C)C)CC(=O)N1C [PP3031] |  |  | AA (a compound having 20 or more is denoted as AA) | A (a compound having 10 or more and less than 20 is denoted as A) |  | 
8.85 |  | CCCN1C(=O)[C@@H]2CCN2C(=O)[C@H](C)N(C)C(=O)[C@H](CC)NC(=O)[C@H](CC(C)C)N(C)C(=O)C[C@@H](C(=O)N2CCOCC2)N(C)C(=O)[C@H](C2CCCC2)N(C)C(=O)C2(CCCC2)NC(=O)[C@@H]2CCCN2C(=O)[C@H](CCc2ccc(C(F)(F)F)c(Cl)c2)NC(=O)CN(C)C(=O)[C@@H]1Cc1ccc(C(F)(F)F)cc1 [PP0269] ([NMeL][Abu][NMeA][Aze][NPrPhe(4-CF3)][Sar][hPhe(3-Cl-4-CF3)]P[Ac5c][NMeGly(cPent)][NMeD]-Morpholide; lactam N-11) |  |  | C (A compound having a KD ratio of 0.1 or more and less than 3 is denoted as C) | B (a compound having 3 or more and less than 10 is denoted as B) |  | 
